Results from article PMC12477080, “Polychlorinated biphenyls (PCBs) interact with drug metabolism in vivo” (Archives of Toxicology, 2025).

Assays:
[1] = target: T1, Human CYP1A2 (Homo sapiens, UniProt P05177); experiment: In vitro metabolism by CYP1A2 Supersomes; type: in vitro ADME
T1 construct: purchased; host or cells: insect cells
T1 sequence (P05177 2-516 limits assumed): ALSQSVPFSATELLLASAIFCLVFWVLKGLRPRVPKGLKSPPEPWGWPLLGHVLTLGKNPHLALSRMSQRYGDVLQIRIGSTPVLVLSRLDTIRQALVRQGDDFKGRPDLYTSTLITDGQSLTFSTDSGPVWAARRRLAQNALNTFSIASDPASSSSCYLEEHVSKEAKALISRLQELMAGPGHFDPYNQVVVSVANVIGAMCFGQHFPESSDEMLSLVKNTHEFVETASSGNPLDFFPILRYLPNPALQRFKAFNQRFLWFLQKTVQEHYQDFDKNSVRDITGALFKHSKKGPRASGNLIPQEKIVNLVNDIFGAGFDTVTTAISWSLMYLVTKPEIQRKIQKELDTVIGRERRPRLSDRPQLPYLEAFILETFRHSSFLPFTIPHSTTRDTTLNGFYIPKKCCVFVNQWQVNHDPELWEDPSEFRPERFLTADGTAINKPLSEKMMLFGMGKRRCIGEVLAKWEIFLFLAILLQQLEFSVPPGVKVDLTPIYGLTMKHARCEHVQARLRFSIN
Experimental: To investigate the metabolism of PCB118 by CYP1A2, incubation assays were conducted using CYP1A2 supersomes in a total reaction volume of 100 µL. Reaction mixtures were assembled on ice. […] Reactions were initiated by the addition of CYP1A2 supersomes.
To assess potential non-enzymatic transformations and confirm NADPH-dependent metabolism, control incubations were performed under the following conditions: buffer and enzyme only (no-substrate control), substrate, buffer, and NADPH without enzyme (no-enzyme control), and substrate, buffer, and enzyme without NADPH (no-NADPH control). Each experimental condition was conducted in triplicate, while control conditions were performed as single replicates.
The resulting supernatants (100 µL) were transferred to LC–MS vials, yielding samples with 80% methanol content for analysis. For the detection of hydroxylated PCB metabolites, reactions were stopped by adding 500 µL methanol, followed by the addition of 50 µL of an internal standard mix (10 ng/mL). Samples were vortexed for 1 min and centrifuged at 4,500 rpm for 10 min. The resulting supernatants were transferred to glass LC vials and evaporated under a nitrogen stream at 45 °C until approximately 50 µL remained. Samples were then reconstituted in 100 µL of 0.1 M ammonium acetate buffer (pH 5.3) before transfer to inserts for LC–MS analysis.
To determine whether PCB118 serves as a substrate for CYP1A2 and could act as a competitive inhibitor for other CYP1A2 substrates, we conducted in vitro metabolism experiments. […] In parallel, CYP1A2-mediated metabolism of PCB118 was assessed. […] The identity of 4-OH-CB107 was verified by comparison with an authentic reference standard, showing identical retention time and spectral characteristics (supplemental Fig. 1).

[2] = test system: CYP2D6; experiment: CYP phenotyping cocktail clinical study: metoprolol/α-OH-metoprolol metabolic ratio and its association with PCB plasma levels; settings: linear regression of MR AUC0–8 h α-OH-metoprolol/metoprolol (CYP2D6 activity) on PCB plasma concentration
Experimental: (§1) The participants were ascertained not to have any acute disease by medical history, physical examination, laboratory screening, including hematological and biochemical blood tests, and a 12-lead electrocardiogram. […] The demographic data of the subjects are summarized in Table 1 in the supplemental data. At the enrollment visit, 2 blood samples (9 ml each) were collected into ethylenediaminetetraacetic acid (EDTA)-containing tubes taken from each subject for analyzing the plasma concentrations of PCB congeners and for pharmacogenetic analysis.
(§2) Participants stayed fasted from the evening before until 3 h after drug administration. After that, a meal was provided. Water and juice were permitted but alcoholic and caffeinated beverages were not allowed from the evening before drug administration until the last blood sample was taken on the next day. Venous blood samples (9 ml each) were collected through an intravenous catheter immediately before and 0.25, 0.5, 0.75, 1, 1.5, 2, 2.5, 3, 4, 5, 6, 7, 8, and 24 h after drug administration. Blood was drawn into EDTA-coated tubes, centrifuged at 1500 g for 10 min at 4 °C, and plasma samples were subsequently stored at − 80 °C until further analysis. After completely voiding the bladder immediately before drug administration, the participants collected urine from 0 to 24 h after drug administration. After weighing the collected urine, a 10 ml aliquot of each fraction was taken.
(§3) Commercially sourced standards and internal standards were used for quantification (see Supplemental Materials). In brief, 20 µl of the plasma samples were protein-precipitated with 80 µl methanol containing all internal standards or were treated for 16 h at 37 °C with 2 µl β-glucuronidase (1,000,000 Units) for deconjugation before protein precipitation with 78 µl methanol containing internal standards. Samples were centrifuged for 20 min, at 4 °C and 17,000 × g, and 40 µl of the supernatants were diluted with 40 µl LC–MS grade water, centrifuged again for 5 min at 4 °C and 17,000 × g and 50 µl supernatant were transferred to LC–MS vials 5 µl of the samples were injected into the LC–MS system.
(§4) An Agilent 1290 Infinity II UHPLC coupled with a SCIEX QTRAP6500 + triple quadrupole mass spectrometer was used. Chromatographic separation was achieved on an Agilent Poroshell 120 EC-C18 (1.9 µm, 2.1 × 50 mm) column with A: 0.1% formic acid in water and B: methanol with a flow rate of 0.7 ml/min and a total run time of 8.5 min. Analytes were eluted using a gradient program. The following gradient steps represent gradual changes in % B over time: 5% B from 0 to 0.2 min, 30% B at 2 min, 34% B at 4.8 min, 95% B at 6.5 min, 95% B at 7.5 min and re-equilibrating to 5% B at 7.7 min and 5%B till 8.5 min. A representative chromatogram is shown in supplemental Fig. 2. The scheduled MRM mode was applied for analyte detection in both positive and negative ESI modes (Supplementary Table 4). Calibration curves were constructed with linear regression using weighted (1/x^2) models (detailed information in supplemental methods).
(§5) Partial areas under the plasma concentration–time curves from 0 to 3 h (AUC0–3 h), from 0 to 4 h (AUC0–4 h), and from 0 to 8 h (AUC0–8 h) were calculated based on measured concentrations by the linear trapezoidal rule without extrapolation. […] Metabolic ratios (MR) were calculated by dividing the partial AUC of the metabolite by the respective partial AUC of the parent drug. The MRs were used as biomarkers for the individual CYP activities of the study subjects.

[3] = test system: CYP2C9; experiment: CYP phenotyping cocktail clinical study: torsemide/OH-torsemide metabolic ratio and its association with PCB plasma levels; settings: linear regression of MR AUC0–8 h OH-torsemide/torsemide (CYP2C9 activity) on PCB plasma concentration
Experimental: as §1, §2, §3, §4, §5

[4] = Determination of PCB concentrations in plasma of HELPcB and control participants; type: in vivo; settings: human plasma
Experimental: The laboratory regularly participates in round robins for the determination of PCBs in plasma (www.g-equas.de).
Plasma concentrations of PCB congeners were quantified in blood samples from all participants using gas chromatography/mass spectrometry (GC–MS) (Fig. 2A and Supplementary Table 2). A total of 19 PCB congeners were measured in control (n = 10) and HELPcB (n = 10) participants, with PCBs detected in all individuals. […] In the control group, PCB plasma concentrations primarily reflected background environmental exposure, such as dietary intake, representing the general population’s burden.

[5] = test system: CYP1A2; experiment: CYP phenotyping cocktail clinical study: caffeine/paraxanthine metabolic ratio and its association with PCB plasma levels; settings: linear regression of MR AUC0–8 h paraxanthine/caffeine (CYP1A2 activity) on PCB plasma concentration
Experimental: as §1, §2, §3
An Agilent 1290 Infinity II UHPLC coupled with a SCIEX QTRAP6500 + triple quadrupole mass spectrometer was used. […]
Partial areas under the plasma concentration–time curves from 0 to 3 h (AUC0–3 h), from 0 to 4 h (AUC0–4 h), and from 0 to 8 h (AUC0–8 h) were calculated based on measured concentrations by the linear trapezoidal rule without extrapolation. […] Metabolic ratios (MR) were calculated by dividing the partial AUC of the metabolite by the respective partial AUC of the parent drug. […]

[6] = test system: CYP1A2 mRNA; experiment: CYP1A2 mRNA expression in primary human hepatocytes (qRT-PCR); type: cell-based; settings: three donors, 48 h exposure, PCB118 0.1–0.5 µM, omeprazole positive control
[7] = Stability of substrates and metabolites in quality control samples (benchtop, autosampler, freeze-thaw); type: physicochemical; settings: for Autosampler stability (24 h) Av. Accuracy (%): 10° C for 24 hours in the autosampler; for 3x freeze-thaw Av. Accuracy (%): after three freeze-thaw cycles; for Benchtop stability (19 h) Ac. Accuracy (%): room temperature for 19 hours
Excerpt: The method was validated for intra- and interday accuracy and precision, stability, and matrix effects. […] Validation details are provided in Supplementary Tables 5–7 and supplemental Fig. 3. Glucuronidase/sulfatase digests were used to isolate CYP-specific metabolic activities, reducing interference from polymorphic UDP-glucuronosyltransferase (UGT) and sulfotransferase isoforms.
Supplemental table 6: Stability of the substrates and metabolites. Quality control samples were left at room temperature for 19 hours (benchtop stability) and at 10° C for 24 hours in the autosampler (autosampler stability) or were measured after three freeze-thaw cycles. Stability samples were measured against a freshly prepared set of calibrators and quality control samples.

## CCOc1ccc(NC(C)=O)cc1 [phenacetin, reference compound]
[1]; 10 µM substrate, 50 pmol/mL CYP1A2 supersomes, 2 mM NADPH, 1 h (phenacetin), 1 and 4 h (PCB118)
  CYP1A2-mediated metabolism of the substrate: efficiently catalyzed the O-de-ethylation of phenacetin to paracetamol

## Clc1cc(Cl)c(-c2ccc(Cl)c(Cl)c2Cl)cc1Cl [PCB138]
[2]
  t value: 0,157
  β (standardized regression coefficient): 0,037
[3]
  t value: 0,341
  β (standardized regression coefficient): 0,080
[3]; PM excl
  t value: 0,219
  β (standardized regression coefficient): 0,053
[4]; HELPcB (occupationally exposed) group
  PCB plasma concentration, Mean [±SD] HELPcB: 0.795 ± 0.593 ng/mL
[4]; HELPcB group, N 10
  PCB plasma concentration, Geometric mean, HELPcB: 0.672 ng/mL
[4]; all participants
  PCB plasma concentration, Mean [±SD] all: 0.493 ± 0.516 ng/mL
[4]; control group (background exposure)
  PCB plasma concentration, Mean [±SD] control: 0.191 ± 0.090 ng/mL
[4]; control group, N 10
  PCB plasma concentration, Geometric mean, Control: 0.173 ng/mL
[5]
  t value: 0,221
  β (standardized regression coefficient): 0,052

## Oc1c(Cl)cc(-c2ccc(Cl)c(Cl)c2)c(Cl)c1Cl [4-OH-CB107]
[1]; control incubations lacking NADPH, substrate, or enzyme
  NADPH dependency of metabolite formation from PCB118: strictly NADPH-dependent

## COc1ccc2[nH]c([S+]([O-])Cc3ncc(C)c(OC)c3C)nc2c1 (stereo not shown) [omeprazol, omeprazole, reference compound]
[6]
  effect on CYP1A2 mRNA expression: strongly upregulated CYP1A2 expression
[7]; QC conc. 0,5 ng/ml
  Autosampler stability (24 h) Av. Accuracy (%): 114,94%
  3x freeze-thaw Av. Accuracy (%): 112,03%
  Benchtop stability (19 h) Ac. Accuracy (%): 117,42%
[7]; QC conc. 0,25 ng/ml
  Autosampler stability (24 h) Av. Accuracy (%): 102,23%
  3x freeze-thaw Av. Accuracy (%): 112,67%
  Benchtop stability (19 h) Ac. Accuracy (%): 91,86%
[7]; QC conc. 60 ng/ml
  Autosampler stability (24 h) Av. Accuracy (%): 111,22%
  3x freeze-thaw Av. Accuracy (%): 106,21%
  Benchtop stability (19 h) Ac. Accuracy (%): 112,32%
[7]; QC conc. 150 ng/ml
  Autosampler stability (24 h) Av. Accuracy (%): 103,07%
  3x freeze-thaw Av. Accuracy (%): 105,55%
  Benchtop stability (19 h) Ac. Accuracy (%): 104,38%
[7]; QC conc. 1,5 ng/ml
  Autosampler stability (24 h) Av. Accuracy (%): 114,49%
  3x freeze-thaw Av. Accuracy (%): 111,42%
  Benchtop stability (19 h) Ac. Accuracy (%): 115,14%
